# Experimental data from patent publication US20130095520A1, “METHOD FOR DETECTION OF UROTHELIAL CANCER” (NATIONAL UNIVERSITY CORPORATION KOCHI UNIVERSITY, priority 2010, published 2013).
# Where a name gives a salt, the structure may show the parent alone.
# System: cancer cells in the urine (urothelial / bladder cancer)
# Test: Detection of PPIX fluorescence in cells of urine collected after oral ALA hydrochloride (fluorescence microscopy of urinary sediment)
# Assay type: in vivo, human
# Conditions: 1 g ALA hydrochloride oral in 50 ml orange juice; patient suspected of bladder cancer (about 60 kg); urine collected after about 4 hours; FIG. 1
# Procedure: 1 g of ALA hydrochloride was dissolved in 50 ml of orange juice, and was given to a patient suspected of having bladder cancer (body weight about 60 kg). Urine was collected after about 4 hours, which was immediately centrifuged (3000 rpm/min., 15 min.) in a light shielded state, and was confirmed by microscopic visualization using sediments. The microscope used was OLYMPUS BX50CCD mounted with camera OLYMPUS DP70. The mirror set was Exciter: XF1076 400AF30 Dichroic:XF2007 475DCLP, Emitter: XF3090 585ALP (OMEGA OPTICAL), all of which being a standard fluorescence microscope system.
# The detection method was performed in the same way as Example 1, except that the dosage amount was changed to 500 mg, which is the half amount of Example 1.
compound,measurement,value
"NCC(=O)CCC(=O)O [ALA hydrochloride, 5-aminolevulinic acid]",PPIX fluorescence in cells separated from the urine,a clear PPIX fluorescence derived from cancer cell was observed
